This note sets out measurements from patent publication US7582639B2, “N-deacetylthiocolchicine derivatives, their use and pharmaceutical formulations containing them” (priority 2004, dated 2009).

Like-named read-outs stand apart in the source and are kept apart here.

Holding throughout (assay): cells
Type in all cases: cell-based

For one test, the system named is MCF7 (breast). As to conditions: after 72 hours, concentration that inhibits cell growth by 50% compared with non treated cells, read-out: IC50 (nM) ± S.E. MCF7 (breast). How it is done:
(§1) The activity of the compounds of formula I was evaluated on a large number of tumour cells expressing different resistance.
(§2) Cytotoxic activity was evaluated according to the procedure described by M. C.

Test [1] concerns A2780/top (resistant to topotecan). As to conditions: after 72 hours, concentration that inhibits cell growth by 50% compared with non treated cells, read-out: IC50 (nM) ± S.E. A2780/top (resistant to topotecan). How it is done: as §1, §2
The test system of another test is A2780 (Ovarian). As to conditions: after 72 hours, concentration that inhibits cell growth by 50% compared with non treated cells, read-out: IC50 (nM) ± S.E. A2780 (Ovarian). The procedure: as §1, §2
In another test the test system is MCF7-R (MDR+). As to conditions: after 72 hours, concentration that inhibits cell growth by 50% compared with non treated cells, read-out: IC50 (nM) ± S.E. MCF7-R (MDR+). How it is done: as §1, §2
Test [2] deals with A2780/pt (resistant to tocisplatin). As to conditions: after 72 hours, concentration that inhibits cell growth by 50% compared with non treated cells, read-out: IC50 (nM) ± S.E. A2780/pt (resistant to tocisplatin). How it is done: as §1, §2
A further test relates to Widr (colon). As to conditions: after 72 hours, concentration that inhibits cell growth by 50% compared with non treated cells, read-out: IC50 (nM) ± S.E. Widr (colon). The procedure: as §1, §2
For the next test, the system named is A2780/dx (Pgp+). As to conditions: after 72 hours, concentration that inhibits cell growth by 50% compared with non treated cells, read-out: IC50 (nM) ± S.E. A2780/dx (Pgp+). How it is done: as §1, §2

As to “3,5-Benzenedicarboxylic acid bis-(N-deacetylthiocolchicine)amide [E.g. 3]”, the IC50 amounted to 1.5 ± 0.1 nM in the test on MCF7 (breast); 5.5 ± 0.1 nM in test [1]; 8 ± 5.6 nM in the test with A2780 (Ovarian); 108 ± 14 nM in the test on MCF7-R (MDR+); 23 ± 4.6 nM in test [2]; 48 ± 24 nM in the test with Widr (colon).

Take `COc1cc2c(c(OC)c1OC)-c1ccc(SC)c(=O)cc1[C@@H](NC(=O)c1cncc(C(=O)N[C@H]3CCc4cc(OC)c(OC)c(OC)c4-c4ccc(SC)c(=O)cc43)c1)CC2` [E.g. 1, 3,5-Pyridinedicarboxylic acid bis-(N-deacetylthiocolchicine)amide]: the IC50 in the test on A2780/dx (Pgp+) was 806 ± 286 nM; with MCF7 (breast) (Homo sapiens, MCF7) it was 0.7 ± 0.1 nM; in test [1] (Homo sapiens, A2780), 6.9 ± 4.2 nM; in the test on A2780 (Ovarian) (Homo sapiens, A2780), 3 ± 0.4 nM; with MCF7-R (MDR+) (Homo sapiens, MCF7R), 72 ± 4.3 nM; in test [2] (Homo sapiens, A2780), 3.7 ± 0.6 nM. The IC50 with Widr (colon) (Homo sapiens, WiDr) is 25 ± 26.4 nM.

“N-Deacetylthiocolchicine 1,4-phenylenediamine bis-urea [E.g. 4]”: the IC50 in test [1] is 152 ± 36 nM; in the test on A2780 (Ovarian) it was 252 ± 38 nM; in test [2], 331 ± 63 nM; in the test with Widr (colon), 650 ± 40 nM.

“trans-1,4-Cyclohexanedicarboxylic acid bis-(N-deacetylthiocolchicine)amide [E.g. 2]”: the IC50 in the test on MCF7 (breast) is 14 ± 0.9 nM; in test [1] it was 32 ± 24 nM; with A2780 (Ovarian), 37 ± 5 nM; in the test with MCF7-R (MDR+), 135 ± 11 nM; in test [2], 26 ± 1 nM; in the test on Widr (colon), 230 ± 166 nM.
